{
  "source": "paper PMC5218480",
  "about": "(PLoS ONE, 2017)",
  "system": "MV-4-11 cells",
  "assay": "Gene expression microarray analysis (Affymetrix PrimeView) and GSEA",
  "type": "cell-based, human",
  "set-up": "RFU PODN (11730768_x_at) / Fold change /veh PODN (11730768_x_at) / RFU LINC00158 (11744669_a_at) / Fold change /veh LINC00158 (11744669_a_at) / RFU DUSP10 (11751237_a_at) / Fold change /veh DUSP10 (11751237_a_at) / RFU ID3 (11757404_x_at) / Fold change /veh ID3 (11757404_x_at) / RFU PLEKHG5 (11737974_s_at) / Fold change /veh PLEKHG5 (11737974_s_at) / RFU LRRC4B (11730491_at) / Fold change /veh LRRC4B (11730491_at) / RFU GIMAP4 (11747438_a_at) / Fold change /veh GIMAP4 (11747438_a_at) / RFU KRT8 (11758183_x_at) / Fold change /veh KRT8 (11758183_x_at) / RFU CNN1 (11734310_a_at) / Fold change /veh CNN1 (11734310_a_at) / RFU VPS37D (11726825_at) / Fold change /veh VPS37D (11726825_at) / RFU C10orf10 (11716522_x_at) / Fold change /veh C10orf10 (11716522_x_at) / RFU KIR2DL2 /// KIR2DL4 /// KIR2DL5A /// KIR2DL5B /// KIR2DS1 /// KIR2DS2 /// KIR2DS3 /// KIR2DS4 /// KIR3DL3 /// KIR3DL3 /// KIR3DS1 (11738374_at) / Fold change /veh KIR2DL2 /// KIR2DL4 /// KIR2DL5A /// KIR2DL5B /// KIR2DS1 /// KIR2DS2 /// KIR2DS3 /// KIR2DS4 /// KIR3DL3 /// KIR3DL3 /// KIR3DS1 (11738374_at) / RFU C1QL1 (11718748_at) / Fold change /veh C1QL1 (11718748_at) / RFU TMPRSS4 (11747572_a_at) / Fold change /veh TMPRSS4 (11747572_a_at) / RFU HAMP (11756126_x_at) / Fold change /veh HAMP (11756126_x_at) / RFU RNFT2 (11725882_a_at) / Fold change /veh RNFT2 (11725882_a_at) / RFU NR4A2 (11747474_a_at) / Fold change /veh NR4A2 (11747474_a_at) / RFU ABCC12 (11746883_a_at) / Fold change /veh ABCC12 (11746883_a_at) / RFU TMEM136 (11760407_x_at) / Fold change /veh TMEM136 (11760407_x_at) / RFU CLDN22 /// WWC2 (11732394_at) / Fold change /veh CLDN22 /// WWC2 (11732394_at) / RFU HLA-DPB1 (11760878_x_at) / Fold change /veh HLA-DPB1 (11760878_x_at) / RFU SPINT1 (11716480_a_at) / Fold change /veh SPINT1 (11716480_a_at) / RFU GAP43 (11754022_s_at) / Fold change /veh GAP43 (11754022_s_at) / RFU A4GNT (11735810_at) / Fold change /veh A4GNT (11735810_at) / RFU PRB3 (11715151_x_at) / Fold change /veh PRB3 (11715151_x_at) / RFU TUBB4B (11761932_at) / Fold change /veh TUBB4B (11761932_at) / RFU CAPN14 (11732068_a_at) / Fold change /veh CAPN14 (11732068_a_at) / RFU TMCC2 (11721928_a_at) / Fold change /veh TMCC2 (11721928_a_at) / RFU IRGQ (11745062_a_at) / Fold change /veh IRGQ (11745062_a_at) / RFU FAM174B (11720279_a_at) / Fold change /veh FAM174B (11720279_a_at) / RFU TMPRSS4 (11748680_a_at) / Fold change /veh TMPRSS4 (11748680_a_at) / RFU FAM212B (11763350_a_at) / Fold change /veh FAM212B (11763350_a_at) / RFU PLEKHG5 (11743358_a_at) / Fold change /veh PLEKHG5 (11743358_a_at) / RFU ZSCAN30 (11745921_a_at) / Fold change /veh ZSCAN30 (11745921_a_at) / RFU CMKLR1 (11741424_a_at) / Fold change /veh CMKLR1 (11741424_a_at) / RFU LOC101060620 /// MAPK8IP1 (11723275_at) / Fold change /veh LOC101060620 /// MAPK8IP1 (11723275_at) / RFU SPTSSB (11747773_x_at) / Fold change /veh SPTSSB (11747773_x_at) / RFU PRSS12 (11739890_at) / Fold change /veh PRSS12 (11739890_at) / RFU BIN1 (11741810_x_at) / Fold change /veh BIN1 (11741810_x_at) / RFU WNT11 (11732464_a_at) / Fold change /veh WNT11 (11732464_a_at) / RFU C10orf10 (11716521_a_at) / Fold change /veh C10orf10 (11716521_a_at) / RFU C5orf56 (11738089_at) / Fold change /veh C5orf56 (11738089_at) / RFU CYB561 (11721691_x_at) / Fold change /veh CYB561 (11721691_x_at) / RFU ANKRD19P (11752326_a_at) / Fold change /veh ANKRD19P (11752326_a_at) / RFU OR2T12 /// OR2T33 /// OR2T8 (11738714_s_at) / Fold change /veh OR2T12 /// OR2T33 /// OR2T8 (11738714_s_at) / RFU VCAN (11748164_a_at) / Fold change /veh VCAN (11748164_a_at) / RFU JSRP1 (11732532_at) / Fold change /veh JSRP1 (11732532_at) / RFU KRTAP10-11 (11738290_x_at) / Fold change /veh KRTAP10-11 (11738290_x_at) / RFU MYO3A (11730013_a_at) / Fold change /veh MYO3A (11730013_a_at) / RFU EBF3 (11725865_a_at) / Fold change /veh EBF3 (11725865_a_at) / RFU CAMK2N1 (11719241_x_at) / Fold change /veh CAMK2N1 (11719241_x_at) / RFU C5orf56 (11738088_a_at) / Fold change /veh C5orf56 (11738088_a_at) / RFU OLFML3 (11715873_a_at) / Fold change /veh OLFML3 (11715873_a_at) / RFU LOC100653217 /// NTM (11731650_a_at) / Fold change /veh LOC100653217 /// NTM (11731650_a_at) / RFU MAPK11 (11762145_a_at) / Fold change /veh MAPK11 (11762145_a_at) / RFU FIZ1 (11724087_x_at) / Fold change /veh FIZ1 (11724087_x_at) / RFU OASL (11726364_x_at) / Fold change /veh OASL (11726364_x_at) / RFU SOX15 (11748057_x_at) / Fold change /veh SOX15 (11748057_x_at) / RFU CD79A (11719716_a_at) / Fold change /veh CD79A (11719716_a_at) / RFU HIST1H1D (11736915_at) / Fold change /veh HIST1H1D (11736915_at) / RFU CASKIN2 (11723855_a_at) / Fold change /veh CASKIN2 (11723855_a_at) / RFU LOC730098 (11760151_x_at) / Fold change /veh LOC730098 (11760151_x_at) / RFU OR4N2 (11742367_at) / Fold change /veh OR4N2 (11742367_at) / RFU PRRT2 (11749266_a_at) / Fold change /veh PRRT2 (11749266_a_at) / RFU SNX32 (11753110_a_at) / Fold change /veh SNX32 (11753110_a_at) / RFU CDHR5 (11726645_a_at) / Fold change /veh CDHR5 (11726645_a_at) / RFU RCAN1 (11760418_a_at) / Fold change /veh RCAN1 (11760418_a_at) / RFU FAM167A (11723789_a_at) / Fold change /veh FAM167A (11723789_a_at) / RFU FAM26E (11764081_at) / Fold change /veh FAM26E (11764081_at) / RFU ISYNA1 (11749810_s_at) / Fold change /veh ISYNA1 (11749810_s_at) / RFU ACY1 (11761880_at) / Fold change /veh ACY1 (11761880_at) / RFU 11764098_at / Fold change /veh 11764098_at / RFU SAMD14 (11745864_x_at) / Fold change /veh SAMD14 (11745864_x_at) / RFU NPB (11741838_a_at) / Fold change /veh NPB (11741838_a_at) / RFU TMPRSS6 (11731388_a_at) / Fold change /veh TMPRSS6 (11731388_a_at) / RFU KRTAP10-2 (11738614_at) / Fold change /veh KRTAP10-2 (11738614_at) / RFU ARHGAP8 /// PRR5-ARHGAP8 (11727945_x_at) / Fold change /veh ARHGAP8 /// PRR5-ARHGAP8 (11727945_x_at) / RFU KRTAP5-7 /// NADSYN1 (11734609_at) / Fold change /veh KRTAP5-7 /// NADSYN1 (11734609_at) / RFU RASL12 (11751679_a_at) / Fold change /veh RASL12 (11751679_a_at) / RFU CDKN2B (11736163_a_at) / Fold change /veh CDKN2B (11736163_a_at) / RFU PRF1 (11729649_at) / Fold change /veh PRF1 (11729649_at) / RFU, ZNF638 /// ZNF638-IT1 / Fold change vs veh, ZNF638 /// ZNF638-IT1 / RFU, PANK3 / Fold change vs veh, PANK3 / RFU, SH3YL1 / Fold change vs veh, SH3YL1 / RFU, ZEB2 / Fold change vs veh, ZEB2 / RFU, NRIP1 / Fold change vs veh, NRIP1 / RFU, PTTG1IP / Fold change vs veh, PTTG1IP / RFU, CAPN2 / Fold change vs veh, CAPN2 / RFU, MED14 / Fold change vs veh, MED14 / RFU, SNORA58 / Fold change vs veh, SNORA58 / RFU, C1orf63 / Fold change vs veh, C1orf63 / RFU, LRRFIP1 / Fold change vs veh, LRRFIP1 / RFU, NDUFAF7 / Fold change vs veh, NDUFAF7 / RFU, SLC12A2 / Fold change vs veh, SLC12A2 / RFU, IBTK / Fold change vs veh, IBTK / RFU, ESF1 / Fold change vs veh, ESF1 / Fold change vs veh, TMEM50B / RFU, TAOK1 / Fold change vs veh, TAOK1 / RFU, ACBD3 / Fold change vs veh, ACBD3 / RFU, TMA16 / Fold change vs veh, TMA16 / RFU, RWDD3 / Fold change vs veh, RWDD3 / RFU, BCAT1 / Fold change vs veh, BCAT1 / RFU, EDEM3 / Fold change vs veh, EDEM3 / RFU, TMEM33 / Fold change vs veh, TMEM33 / RFU, WDR75 / Fold change vs veh, WDR75 / RFU, AHCTF1 / Fold change vs veh, AHCTF1 / RFU, TFRC / Fold change vs veh, TFRC / RFU, ZDHHC17 / Fold change vs veh, ZDHHC17 / RFU, NOM1 / Fold change vs veh, NOM1 / RFU, ARL8B / Fold change vs veh, ARL8B / RFU, ZBTB11 / Fold change vs veh, ZBTB11 / RFU, TAMM41 / Fold change vs veh, TAMM41 / RFU, KIAA1704 /// LOC100996395 / Fold change vs veh, KIAA1704 /// LOC100996395 / RFU, ING1 / Fold change vs veh, ING1 / RFU, TRMT61B / Fold change vs veh, TRMT61B / RFU, FUBP3 / Fold change vs veh, FUBP3 / RFU, TP53 / Fold change vs veh, TP53 / RFU, TNKS2 / Fold change vs veh, TNKS2 / RFU, ZFP14 / Fold change vs veh, ZFP14 / RFU, ACTR2 / Fold change vs veh, ACTR2 / RFU, PPP3R1 / Fold change vs veh, PPP3R1 / RFU, PIK3R1 / Fold change vs veh, PIK3R1 / RFU, HNRNPA1 / Fold change vs veh, HNRNPA1 / RFU, RNF170 / Fold change vs veh, RNF170 / RFU, ZNF28 / Fold change vs veh, ZNF28 / RFU, RNGTT / Fold change vs veh, RNGTT / RFU, OGT / Fold change vs veh, OGT / RFU, BRD1 / Fold change vs veh, BRD1 / RFU, MARS / Fold change vs veh, MARS / RFU, ZNF655 / Fold change vs veh, ZNF655 / RFU, FAHD1 / Fold change vs veh, FAHD1 / RFU, BDP1 / Fold change vs veh, BDP1 / RFU, LRRCC1 / Fold change vs veh, LRRCC1 / RFU, ARID1A / Fold change vs veh, ARID1A / RFU, ZNF146 / Fold change vs veh, ZNF146 / RFU, ZNF330 / Fold change vs veh, ZNF330 / RFU, GPN3 / Fold change vs veh, GPN3 / RFU, C9orf123 / Fold change vs veh, C9orf123 / RFU, N4BP2L2 / Fold change vs veh, N4BP2L2 / RFU, ARFIP1 / Fold change vs veh, ARFIP1 / RFU, FAM179B / Fold change vs veh, FAM179B / RFU, BCL10 / Fold change vs veh, BCL10 / RFU, UHRF1BP1L / Fold change vs veh, UHRF1BP1L / RFU, BET1 / Fold change vs veh, BET1 / RFU, CNOT2 / Fold change vs veh, CNOT2 / RFU, ZNF268 / Fold change vs veh, ZNF268 / Fold change vs veh, ZNF507 / RFU, DGCR2 / Fold change vs veh, DGCR2 / RFU, WDSUB1 / Fold change vs veh, WDSUB1 / Fold change vs veh, HSP90B1 /// MIR3652 / RFU, ADSS / Fold change vs veh, ADSS / RFU, GK / Fold change vs veh, GK / RFU, ZNF148 / Fold change vs veh, ZNF148 / RFU, TAF9 / Fold change vs veh, TAF9 / RFU, SLC1A5 / Fold change vs veh, SLC1A5 / RFU, SLMO2 / Fold change vs veh, SLMO2 / RFU, ABCC4 / Fold change vs veh, ABCC4 / RFU, LOC101060439 /// RAP1B / Fold change vs veh, LOC101060439 /// RAP1B / RFU, RFX7 / Fold change vs veh, RFX7 / RFU, GTPBP10 / Fold change vs veh, GTPBP10 / RFU, CNEP1R1 / Fold change vs veh, CNEP1R1 / RFU, BIVM-ERCC5 /// ERCC5 / Fold change vs veh, BIVM-ERCC5 /// ERCC5 / RFU, ILF3 / Fold change vs veh, ILF3 / RFU 11762660_at / Fold change /veh 11762660_at / RFU VCAN (11757783_s_at) / Fold change /veh VCAN (11757783_s_at) / RFU DDX43 (11728927_at) / Fold change /veh DDX43 (11728927_at) / RFU KRT8 (11758188_x_at) / Fold change /veh KRT8 (11758188_x_at) / RFU NKD1 (11759106_at) / Fold change /veh NKD1 (11759106_at) / RFU SRD5A1 (11742802_a_at) / Fold change /veh SRD5A1 (11742802_a_at) / RFU TPSAB1 /// TPSB2 (11721975_s_at) / Fold change /veh TPSAB1 /// TPSB2 (11721975_s_at) / RFU GSTM3 (11746129_a_at) / Fold change /veh GSTM3 (11746129_a_at) / RFU IL23R (11737362_x_at) / Fold change /veh IL23R (11737362_x_at) / RFU TMEM51 (11727254_a_at) / Fold change /veh TMEM51 (11727254_a_at) / RFU PIWIL2 (11732686_x_at) / Fold change /veh PIWIL2 (11732686_x_at) / RFU ORM1 (11744905_x_at) / Fold change /veh ORM1 (11744905_x_at) / RFU CCDC152 (11743942_at) / Fold change /veh CCDC152 (11743942_at) / RFU ECM1 (11717891_a_at) / Fold change /veh ECM1 (11717891_a_at) / RFU IL23R (11748794_a_at) / Fold change /veh IL23R (11748794_a_at) / RFU TNFAIP8L3 (11732012_x_at) / Fold change /veh TNFAIP8L3 (11732012_x_at) / RFU MBOAT4 (11741988_at) / Fold change /veh MBOAT4 (11741988_at) / RFU 11764193_at / Fold change /veh 11764193_at / RFU TMEM53 (11763286_at) / Fold change /veh TMEM53 (11763286_at) / RFU MAGEB2 (11727129_at) / Fold change /veh MAGEB2 (11727129_at) / RFU TMEM200A (11744735_a_at) / Fold change /veh TMEM200A (11744735_a_at) / RFU CCDC152 (11751479_a_at) / Fold change /veh CCDC152 (11751479_a_at) / RFU FAM211A (11726209_a_at) / Fold change /veh FAM211A (11726209_a_at) / RFU RGS16 (11746705_a_at) / Fold change /veh RGS16 (11746705_a_at) / RFU VCAN (11755009_s_at) / Fold change /veh VCAN (11755009_s_at) / RFU RHOB (11743442_s_at) / Fold change /veh RHOB (11743442_s_at) / RFU RGS16 (11720943_a_at) / Fold change /veh RGS16 (11720943_a_at) / RFU RGS16 (11720944_at) / Fold change /veh RGS16 (11720944_at) / RFU, VPS4B / Fold change vs veh, VPS4B / RFU, CREB1 / Fold change vs veh, CREB1 / RFU, DNAJC13 / Fold change vs veh, DNAJC13 / RFU, GNAQ / Fold change vs veh, GNAQ / RFU, CDK5R1 / Fold change vs veh, CDK5R1 / RFU, ZRANB3 / Fold change vs veh, ZRANB3 / RFU, CUL4A / Fold change vs veh, CUL4A / RFU, CCNY / Fold change vs veh, CCNY / RFU, UFL1 / Fold change vs veh, UFL1 / RFU, COG3 / Fold change vs veh, COG3 / RFU, DIAPH2 / Fold change vs veh, DIAPH2 / RFU, SKA2 / Fold change vs veh, SKA2 / RFU, AFF3 / Fold change vs veh, AFF3 / RFU, LMF1 / Fold change vs veh, LMF1 / RFU, IPO11 / Fold change vs veh, IPO11 / RFU, DFFB / Fold change vs veh, DFFB / RFU, FOXP1 / Fold change vs veh, FOXP1 / RFU, CARD8 / Fold change vs veh, CARD8 / RFU, STRN3 / Fold change vs veh, STRN3 / RFU, ADK / Fold change vs veh, ADK / RFU, RASSF2 / Fold change vs veh, RASSF2 / RFU, WIPF1 / Fold change vs veh, WIPF1 / RFU, LARP1B / Fold change vs veh, LARP1B / RFU, RASA1 / Fold change vs veh, RASA1 / RFU, RB1 / Fold change vs veh, RB1 / RFU, PPFIA1 / Fold change vs veh, PPFIA1 / RFU, MAT2A / Fold change vs veh, MAT2A / RFU, CCT5 / Fold change vs veh, CCT5 / RFU, WDR92 / Fold change vs veh, WDR92 / RFU, CUX1 / Fold change vs veh, CUX1 / RFU, TTC7A / Fold change vs veh, TTC7A / RFU, TMEM135 / Fold change vs veh, TMEM135 / RFU, DEPTOR / Fold change vs veh, DEPTOR / RFU, CPM / Fold change vs veh, CPM / RFU, DNAJB6 / Fold change vs veh, DNAJB6 / RFU, CACNA2D3 / Fold change vs veh, CACNA2D3 / RFU, DTX4 / Fold change vs veh, DTX4 / RFU, TFCP2 / Fold change vs veh, TFCP2 / RFU, GMCL1 /// GMCL1P1 / Fold change vs veh, GMCL1 /// GMCL1P1 / RFU, AEBP2 / Fold change vs veh, AEBP2 / RFU, SNHG1 /// SNORD22 /// SNORD25 /// SNORD26 /// SNORD27 /// SNORD28 /// SNORD29 /// SNORD31 / Fold change vs veh, SNHG1 /// SNORD22 /// SNORD25 /// SNORD26 /// SNORD27 /// SNORD28 /// SNORD29 /// SNORD31 / Fold change (Aza/veh), C12orf56 (ProbeSet 11735607_a_at) / Fold change (ACY-1035/veh), C12orf56 (ProbeSet 11735607_a_at) / Fold change (Aza/veh), FGFR1OP (ProbeSet 11751329_s_at) / Fold change (ACY-1035/veh), FGFR1OP (ProbeSet 11751329_s_at) / Fold change (Aza/veh), VPS36 (ProbeSet 11739960_a_at) / Fold change (ACY-1035/veh), VPS36 (ProbeSet 11739960_a_at) / RFU SYPL1 (11715823_x_at) / Fold change /veh SYPL1 (11715823_x_at) / RFU IGFBP7 (11715501_s_at) / Fold change /veh IGFBP7 (11715501_s_at) / RFU REEP3 (11722064_at) / Fold change /veh REEP3 (11722064_at) / RFU IGLL1 (11728026_x_at) / Fold change /veh IGLL1 (11728026_x_at): dose or concentration left out as unconfirmed",
  "conditions": "ProbeSet 11763895_x_at; LIST B",
  "data": [
    {"compound": "Nc1ncn([C@@H]2O[C@H](CO)[C@@H](O)[C@H]2O)c(=O)n1", "note": "[azacitidine]", "values": [
      {"measurement": "Fold change vs veh, SNORA58", "result": 1.03}
    ]}
  ]
}
